Measurements from ChEMBL document CHEMBL1158627, “Non-basic ligands for aminergic GPCRs: the discovery and development diaryl sulfones as selective, orally bioavailable 5-HT2A receptor antagonists for the treatment of sleep disorders” (Bioorg Med Chem Lett, 2010).
Activity calls are given as the source filed them. No cut-off for these calls is given here.

What was measured:
[1] = target: Voltage-gated inwardly rectifying potassium channel KCNH2 (Homo sapiens, UniProt Q12809); experiment: Displacement of [3H]-dofetilide from human ERG receptor expressed HEK cells
[2] = target: 5-hydroxytryptamine receptor 2A (Homo sapiens, UniProt P28223); experiment: biochemical
Description: Displacement of [3H]- ketanserin from human 5HT2A receptor expressed CHO cells

[3] = target: T1, 5-hydroxytryptamine receptor 2C (Homo sapiens, UniProt P28335); experiment: biochemical
T1 sequence (P28335 whole entry): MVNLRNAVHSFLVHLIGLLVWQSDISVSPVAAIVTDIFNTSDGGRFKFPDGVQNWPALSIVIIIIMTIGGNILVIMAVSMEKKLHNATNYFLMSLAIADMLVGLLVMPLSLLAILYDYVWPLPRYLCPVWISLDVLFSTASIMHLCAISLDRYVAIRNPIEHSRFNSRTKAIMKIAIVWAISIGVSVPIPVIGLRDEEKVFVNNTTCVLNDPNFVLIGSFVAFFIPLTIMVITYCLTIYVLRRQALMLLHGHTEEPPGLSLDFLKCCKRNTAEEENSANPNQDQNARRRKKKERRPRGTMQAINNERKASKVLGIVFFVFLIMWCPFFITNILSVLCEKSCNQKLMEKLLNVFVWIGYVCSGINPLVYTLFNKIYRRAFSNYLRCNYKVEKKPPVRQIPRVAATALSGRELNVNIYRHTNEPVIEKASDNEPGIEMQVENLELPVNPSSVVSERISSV
Description: Displacement of [3H]mesulergine from human 5HT2C receptor expressed CHO cells

Rattus norvegicus [4] = experiment: Ex vivo receptor occupancy of 5HT2A receptor in rat brain at 10 mg/kg, po after 0.5 hrs; format: functional
[5] = Metabolic stability in human liver microsomes assessed as compound turnover after 0.25 hrs by LC/MS/MS analysis; set-up: dose or concentration left out as unconfirmed
[6] = Drug level in rat brain at 10 mg/kg, po after 0.5 hrs; format: ADME, organism-based; set-up: dose 10 mg/kg, route oral; settings: read-out: Drug uptake
[7] = Plasma concentration in rat at 10 mg/kg, po after 0.5 hrs; format: ADME, organism-based; set-up: dose 10 mg/kg, route oral
Rattus norvegicus [8] = experiment: Inhibition of ex vivo receptor occupancy of 5HT2A receptor in rat brain at 10 mg/kg, po after 0.5 hrs; format: functional
[9] = target: Cytochrome P450 2C9 (Homo sapiens) (UniProt P11712); experiment: Inhibition of CYP2C9
[10] = Drug level in rat brain at 5 mg/kg, po administered with imwittor/tween by electrospray mass spectrometry; format: ADME, organism-based; set-up: dose 5 mg/kg, route oral
[11] = Drug level in rat cardiac plasma at 5 mg/kg, po administered with methocel suspension by electrospray mass spectrometry; format: ADME, organism-based; set-up: dose 5 mg/kg, route oral
[12] = Drug level in rat cardiac plasma at 5 mg/kg, po administered with imwittor/tween by electrospray mass spectrometry; format: ADME, organism-based; set-up: dose 5 mg/kg, route oral
[13] = Drug level in rat brain at 5 mg/kg, po administered with methocel suspension by electrospray mass spectrometry; format: ADME, organism-based; set-up: dose 5 mg/kg, route oral
[14] = Drug level in rat hepatic portal vein plasma at 5 mg/kg, po administered with imwittor/tween by electrospray mass spectrometry; format: ADME, organism-based; set-up: dose 5 mg/kg, route oral
[15] = Drug level in rat hepatic portal vein plasma at 5 mg/kg, po administered with methocel suspension by electrospray mass spectrometry; format: ADME, organism-based; set-up: dose 5 mg/kg, route oral
Rattus norvegicus [16] = experiment: Ex vivo receptor occupancy of 5HT2A receptor in rat brain at 5 mg/kg, po after 0.5 hrs; format: functional
[17] = Bioavailability in dog; format: ADME, organism-based, Canis lupus familiaris; settings: in vivo
[18] = Inhibition of cytochrome P450 at > 30 uM; format: ADME
Rattus norvegicus [19] = experiment: Increase of slow wave sleep in rat at 3 mg/kg, po after 15 hrs by EEG recordings; format: functional, organism-based; set-up: dose 3 mg/kg
Rattus norvegicus [20] = experiment: Ex vivo receptor occupancy of 5HT2A receptor in rat brain at 3 mg/kg, po after 2 hrs; format: functional, organism-based; set-up: dose 3 mg/kg
[21] = Half life in rhesus monkey at 0.1 mg/kg, iv and 1 mg/kg, po; format: ADME, organism-based, Macaca mulatta; settings: in vivo
[22] = Volume of distribution at steady state in Sprague-Dawley rat at 0.1 mg/kg, iv and 1 mg/kg, po; format: ADME, organism-based; settings: in vivo, read-out: Vdss
[23] = Bioavailability in rat; format: ADME, organism-based; settings: in vivo
[24] = Plasma concentration in rat at <1 mg/kg, po after 2 hrs; format: ADME, organism-based
[25] = Metabolic stability in rhesus monkey liver microsomes assessed as compound remaining […] after 0.25 hrs by LC/MS/MS analysis; format: ADME, Macaca mulatta, Microsome; settings: read-out: Stability
[26] = Half life in Sprague-Dawley rat at 0.1 mg/kg, iv and 1 mg/kg, po; format: ADME, organism-based; settings: in vivo
[27] = Chemical stability in acetonitrile/water at pH 1 to 10 after 5 days; format: physicochemical; settings: pH 1, 120 h
[28] = Plasma clearance in Sprague-Dawley rat at 0.1 mg/kg, iv and 1 mg/kg, po; format: ADME, organism-based
Rattus norvegicus [29] = experiment: Sedative activity in rat assessed effect on sleep onset at 3 mg/kg, po after 15 hrs; format: ADME, organism-based; set-up: dose 3 mg/kg, route oral; settings: in vivo
[30] = Metabolic stability in rat liver microsomes assessed as compound remaining […] after 0.25 hrs by LC/MS/MS analysis; format: ADME, Microsome; settings: read-out: Stability
Canis familiaris [31] = experiment: Cardiotoxicity in dog assessed as increase of QT interval up to 10 mg/kg, iv; format: toxicity, organism-based, Canis lupus familiaris; set-up: dose 10 mg/kg, route intravenous; settings: in vivo
[32] = Half life in dog at 0.1 mg/kg, iv and 1 mg/kg, po; format: ADME, organism-based, Canis lupus familiaris; settings: in vivo
Rattus norvegicus [33] = experiment: Ex vivo receptor occupancy of 5HT2A receptor in rat brain at 1 mg/kg, po after 0.5 hrs; format: functional
[34] = Inhibition of CYP1A at 4.8 uM; format: ADME
[35] = Induction of cytochrome P450 activity at 10 uM; format: ADME
[36] = Metabolic stability in dog liver microsomes assessed as compound remaining […] after 0.25 hrs by LC/MS/MS analysis; format: ADME, Canis lupus familiaris, Microsome; settings: read-out: Stability
[37] = target: Cytochrome P450 2C9 (Homo sapiens) (UniProt P11712); experiment: Inhibition of CYP2C9 at 6 uM
Rattus norvegicus [38] = experiment: Decrease of number of awakenings in rat at 3 mg/kg, po after 15 hrs by EMG recordings; format: functional, organism-based; set-up: dose 3 mg/kg
Rhesus monkey = experiment: Plasma concentration in rhesus monkey; format: ADME, organism-based, Macaca mulatta; settings: in vivo
Mus musculus = experiment: Phototoxicity in mouse assessed as formation of erythema at 10 to 2000 mg/kg, po; format: organism-based; set-up: dose 10-2000 mg/kg, route oral; settings: in vivo
[39] = Stability after 5 days; format: physicochemical; settings: 120 h
[40] = Plasma clearance in dog at 0.1 mg/kg, iv and 1 mg/kg, po; format: ADME, organism-based, Canis lupus familiaris
Canis familiaris [41] = experiment: Cardiotoxicity in dog assessed as increase of heart rate up to 10 mg/kg, iv; format: toxicity, organism-based, Canis lupus familiaris; set-up: dose 10 mg/kg, route intravenous; settings: in vivo
[42] = Bioavailability in rhesus monkey; format: ADME, organism-based, Macaca mulatta; settings: in vivo
Rattus norvegicus [43] = experiment: Ex vivo receptor occupancy of 5HT2A receptor in rat brain at <1 mg/kg, po after 2 hrs; format: functional
[44] = Plasma clearance in rhesus monkey at 0.1 mg/kg, iv and 1 mg/kg, po; format: ADME, organism-based, Macaca mulatta
Rattus norvegicus [45] = experiment: Sedative activity in rat assessed effect on time spent on rapid eye movement sleep at 3 mg/kg, po after 15 hrs; format: ADME, organism-based; set-up: dose 3 mg/kg, route oral; settings: in vivo

Sequence of Voltage-gated inwardly rectifying potassium channel KCNH2 (Q12809 whole entry): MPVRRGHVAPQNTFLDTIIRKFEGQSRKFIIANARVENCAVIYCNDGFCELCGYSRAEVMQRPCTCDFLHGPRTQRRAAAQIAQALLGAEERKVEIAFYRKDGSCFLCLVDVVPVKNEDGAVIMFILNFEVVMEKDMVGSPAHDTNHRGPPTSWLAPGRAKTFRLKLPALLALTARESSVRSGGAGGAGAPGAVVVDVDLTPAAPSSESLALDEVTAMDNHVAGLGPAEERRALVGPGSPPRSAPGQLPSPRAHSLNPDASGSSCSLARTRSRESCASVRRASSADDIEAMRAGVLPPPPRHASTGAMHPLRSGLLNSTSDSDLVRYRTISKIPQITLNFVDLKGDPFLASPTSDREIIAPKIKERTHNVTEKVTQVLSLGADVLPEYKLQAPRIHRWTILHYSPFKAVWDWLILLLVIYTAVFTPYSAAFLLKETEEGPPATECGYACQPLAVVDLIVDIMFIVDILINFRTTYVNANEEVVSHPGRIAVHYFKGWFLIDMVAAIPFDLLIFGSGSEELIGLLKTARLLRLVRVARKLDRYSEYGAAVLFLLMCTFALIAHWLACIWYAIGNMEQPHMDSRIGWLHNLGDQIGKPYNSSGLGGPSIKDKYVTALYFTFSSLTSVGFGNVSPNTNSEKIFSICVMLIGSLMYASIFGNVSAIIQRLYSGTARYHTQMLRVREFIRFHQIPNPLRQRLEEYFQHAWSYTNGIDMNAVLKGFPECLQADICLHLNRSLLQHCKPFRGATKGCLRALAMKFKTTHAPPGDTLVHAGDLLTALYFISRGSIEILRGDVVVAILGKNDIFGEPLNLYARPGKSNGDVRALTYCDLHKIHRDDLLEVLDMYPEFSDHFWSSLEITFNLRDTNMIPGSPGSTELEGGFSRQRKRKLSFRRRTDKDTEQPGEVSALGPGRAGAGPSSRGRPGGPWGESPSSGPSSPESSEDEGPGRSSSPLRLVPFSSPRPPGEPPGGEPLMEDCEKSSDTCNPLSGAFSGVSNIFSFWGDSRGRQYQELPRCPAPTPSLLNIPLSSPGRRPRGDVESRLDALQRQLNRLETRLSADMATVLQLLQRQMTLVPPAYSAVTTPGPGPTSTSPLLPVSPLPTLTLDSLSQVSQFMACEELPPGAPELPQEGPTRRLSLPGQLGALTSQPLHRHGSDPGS
Sequence of 5-hydroxytryptamine receptor 2A (P28223 whole entry): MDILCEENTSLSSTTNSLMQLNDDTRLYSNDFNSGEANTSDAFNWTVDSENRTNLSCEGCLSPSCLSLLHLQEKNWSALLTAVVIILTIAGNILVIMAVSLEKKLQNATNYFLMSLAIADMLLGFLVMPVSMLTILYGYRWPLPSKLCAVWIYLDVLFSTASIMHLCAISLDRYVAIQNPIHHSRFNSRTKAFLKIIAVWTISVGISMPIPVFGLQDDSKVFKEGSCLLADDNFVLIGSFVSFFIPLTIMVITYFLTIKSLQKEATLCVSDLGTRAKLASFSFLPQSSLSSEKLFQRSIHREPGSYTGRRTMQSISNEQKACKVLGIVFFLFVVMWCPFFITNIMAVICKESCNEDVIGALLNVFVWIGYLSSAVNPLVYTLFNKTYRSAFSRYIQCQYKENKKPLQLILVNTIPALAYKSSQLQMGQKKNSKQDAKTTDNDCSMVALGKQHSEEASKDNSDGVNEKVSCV
Sequence of Cytochrome P450 2C9 (Homo sapiens) (P11712 whole entry, looked up): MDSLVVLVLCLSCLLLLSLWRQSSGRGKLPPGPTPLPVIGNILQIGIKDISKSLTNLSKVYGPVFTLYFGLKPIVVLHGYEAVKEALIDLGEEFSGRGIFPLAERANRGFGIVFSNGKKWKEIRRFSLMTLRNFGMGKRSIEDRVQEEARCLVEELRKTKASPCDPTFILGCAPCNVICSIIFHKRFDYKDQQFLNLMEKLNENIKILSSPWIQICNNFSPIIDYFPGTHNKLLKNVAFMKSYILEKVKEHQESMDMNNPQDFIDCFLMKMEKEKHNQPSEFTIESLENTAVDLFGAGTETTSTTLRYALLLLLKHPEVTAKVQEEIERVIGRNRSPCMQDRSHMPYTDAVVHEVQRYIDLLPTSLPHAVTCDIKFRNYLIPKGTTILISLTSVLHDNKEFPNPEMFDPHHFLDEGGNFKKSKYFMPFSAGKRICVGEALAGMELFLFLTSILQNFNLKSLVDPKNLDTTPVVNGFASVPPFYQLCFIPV

O=S(=O)(c1cccc2cccnc12)N1CCC(CCc2ccc(F)cc2F)CC1
Ki [1]: > 9000 nM | Ki [2]: 2.1 nM | Ki [3]: 184 nM

O=S(=O)(c1ccc(F)cc1)C1(F)CCN(CCc2ccc(F)cc2F)CC1
Activity (Rattus norvegicus [4]): 98% | Ki [3]: 69 nM

NC(=O)c1ccc(S(=O)(=O)c2ccc(/C=C/c3ccc(F)cc3F)cc2)cc1
turnover at 0.25 h [5]: 0% | concentration at 0.5 h [6]: 620 nM | concentration at 0.5 h [7]: 300 nM | Ki [1]: 7920 nM | inhibition in vivo at 10 mg/kg (Rattus norvegicus [8]): 53% | Ki [2]: 0.65 nM | Ki [3]: 41 nM

O=S(=O)(c1ccc(/C=C/c2ccc(F)cc2)cc1)c1ccccc1CO
IC50 [9]: 100 nM

O=S(=O)(c1ccccc1)c1ccc(/C=C/c2ccc(F)cc2F)cc1
turnover at 0.25 h [5]: 33% | AUC [10]: 1.96 µM·h | Activity (Rattus norvegicus [4]): 40% | Ki [1]: 4340 nM | AUC [11]: 0.09 µM·h | AUC [12]: 0.79 µM·h | Ki [2]: 1.32 nM | AUC [13]: 0.38 µM·h | Ki [3]: 65 nM | AUC [14]: 6.39 µM·h | AUC [15]: 0.46 µM·h

O=C(c1ccccc1F)N1CCC(CCc2ccc(F)cc2F)CC1
turnover at 0.25 h [5]: 99% | Activity (Rattus norvegicus [4]): 40% | Ki [1]: > 9000 nM | Ki [3]: 100 nM

NC(=O)c1cccc(S(=O)(=O)c2ccc(/C=C/c3ccc(F)cc3F)cc2)c1
turnover at 0.25 h [5]: 3% | concentration at 0.5 h [6]: 40 nM | Activity (Rattus norvegicus [4]): 50% | concentration at 0.5 h [7]: 40 nM | Ki [1]: > 9000 nM | inhibition in vivo at 10 mg/kg (Rattus norvegicus [8]): 50% | Ki [2]: 0.2 nM | Ki [3]: 21 nM

CC(O)c1ccccc1S(=O)(=O)c1ccc(/C=C/c2ccc(F)cc2)cc1 (racemic)
turnover at 0.25 h [5]: < 10% | Activity (Rattus norvegicus [16]): 99% | Activity (Rattus norvegicus [4]): 85% | Ki [1]: 4000 nM | Ki [2]: 0.07 nM | Ki [3]: 7 nM

C[C@H](O)c1ccccc1S(=O)(=O)c1ccc(/C=C/c2ccc(F)cc2)cc1
turnover at 0.25 h [5]: 45% | bioavailability [17]: 45% | IC50 [18]: > 30000 nM | Activity (Rattus norvegicus [19]): Active | Activity (Rattus norvegicus [20]): Active | half-life [21]: 2.13 h | Vd [22]: 19 L/kg | bioavailability [23]: 44% | concentration at 2 h [24]: 60 nM | remaining at 0.25 h [25]: 44% | half-life [26]: 3.8 h | Stability [27]: Stable | clearance [28]: 95 mL/min/kg | Activity (Rattus norvegicus [29]): Non-toxic | remaining at 0.25 h [30]: 50% | Activity (Canis familiaris [31]): Non-toxic | half-life [32]: 3.15 h | Activity (Rattus norvegicus [33]): 83% | Ki [1]: 8250 nM | IC50 [34]: 4800 nM | Activity [35]: 8% | remaining at 0.25 h [36]: 34% | INH [37]: 6 µM | Activity (Rattus norvegicus [38]): Active | concentration (Rhesus monkey): 170 nM | Activity (Mus musculus): Toxic | Stability [39]: Stable | clearance [40]: 8 mL/min/kg | Activity (Canis familiaris [41]): Non-toxic | bioavailability [42]: 10% | Activity (Rattus norvegicus [43]): 80% | Ki [2]: 0.22 nM | clearance [44]: 32 mL/min/kg | Activity (Rattus norvegicus [45]): Non-toxic | Ki [3]: 47 nM

O=S(=O)(c1ccccc1)c1ccc(CCc2ccc(F)cc2F)cc1
turnover at 0.25 h [5]: 84% | Ki [1]: > 9000 nM | Ki [2]: 1.43 nM | Ki [3]: 526 nM

NC(=O)c1ccccc1S(=O)(=O)c1ccc(/C=C/c2ccc(F)cc2F)cc1
turnover at 0.25 h [5]: 15.8% | concentration at 0.5 h [6]: 5770 nM | half-life [21]: 85 h | remaining at 0.25 h [25]: 23% | half-life [26]: 28 h | Activity (Rattus norvegicus [4]): > 100% | clearance [28]: 3 mL/min/kg | remaining at 0.25 h [30]: 0% | concentration at 0.5 h [7]: 2730 nM | half-life [32]: 134 h | Ki [1]: > 9000 nM | remaining at 0.25 h [36]: < 10% | clearance [40]: 0.3 mL/min/kg | inhibition in vivo at 10 mg/kg (Rattus norvegicus [8]): 100% | Ki [2]: 0.65 nM | clearance [44]: 0.13 mL/min/kg | Ki [3]: 127 nM
